Patent publication US6815170B1, “Methods for lymph node identification” (John Wayne Cancer Institute, priority 1999, dated 2004)
“Also recorded” adds a separate entry of the source.

Legend:
malignant melanoma = conditions: liver and lung; cited from earlier work
sentinel lymph node = experiment: Intraoperative lymphatic mapping / sentinel lymph node dissection with histologic evaluation for carbon particles; assay type: in vivo, Sprague-Dawley rats; conditions: for basins in which afferent lymphatic channel and stained (sentinel) node were identified: 0.04 cc intradermal, lower extremity, incision 5 min after injection
Description: Twenty-two adult Sprague-Dawley rats weighing 300-500 g were obtained after receiving approval from the Animal Care and Use Committee at the Harbor-UCLA Research and Education Institute. All animals were obtained at least one day prior to planned procedures.
Isosulfan blue dye (Lymphazurin 1%) was obtained from Hirsch Industries, Inc. (Richmond, Va.). Carbon dye containing 6% carbon black (# 4415) was obtained from Sanford Corporation (Bellwood, Ill.) and either used alone at full strength or mixed with isosulfan blue and/or sterile normal saline in the concentrations shown in Table 1.
All mapping solutions containing ink were sterilized in an autoclave at 121° C. for 25 m, prior to injection.
All procedures were performed under general anesthesia. Rats were anesthetized with a mixture of ketamine (42.9 mg/kg), xylazine (8.6 mg/kg), and acepromazine (1.4 mg/kg). A half-dose of this mixture was readministered at 60 minutes and then every 30 minutes. Buprenorphine (0.01-0.05 mg/kg) was administered subcutaneously for postoperative analgesia.
The inguinal regions of the animals were shaved. A 29-gauge needle with a 1-cc tuberculin syringe was used to inject 0.04 cc of the mapping solution intradermally just below the medial aspect of the knee on the lower extremity. Five minutes later, and under sterile conditions, an incision was made over the region of the inguinal lymph nodes. […] The lymphatic was followed to the first stained lymph node. Further dissection was carried out to identify additional stained nodes. All stained nodes were removed and placed in formalin. Nonstained nodes in the same drainage basin were removed and fixed in a similar fashion, and analyzed for carbon particles. The identical procedure was performed on the contralateral extremity of each animal using an alternative mapping mixture.
Lymph nodes were placed in paraffin blocks, serially sectioned, and stained with hematoxylin and eosin (H and E). Each lymph node was evaluated by light microscopy for the presence of carbon particles.

CCN(CC)CCNC(=O)c1ccc(I)cc1 [IDAB, N-(diethylaminoethyl)4-iodobenzamide]
uptake by non-tumor tissue (malignant melanoma): taken up in high concentrations by non-melanoma cells in the liver and lung

CCN(CC)c1ccc(C(=C2C=CC(=[N+](CC)CC)C=C2)c2cc(S(=O)(=O)[O-])ccc2S(=O)(=O)[O-])cc1.[Na+] [isosulfan blue dye, isosulfan blue]
basins in which afferent lymphatic channel and stained (sentinel) node were identified (sentinel lymph node; listed as Isosulfan blue): effectively identified the lymphatic channel and sentinel node(s); also recorded: clearly identified one sentinel node in each paired basin | basins in which afferent lymphatic channel and stained (sentinel) node were identified (sentinel lymph node; listed as Isosulfan blue dye): all 6 | total number of sentinel nodes (sentinel lymph node; 6 basins): 8
